The structures appear in SMILES notation.

As usually defined, the IC50 is the concentration that gives 50% inhibition.

The test system of this assay is HeLa S3 cells. Put plainly: HeLa S3 Cell Growth Inhibition Test. In kind it is cell-based. The note with it: Homo sapiens, 72 hours culture with compound, neutral red staining. Here is the method:
Each 0.1 ml of HeLa S3 cells which had been prepared to 3 x 10^4 cells/ml using a medium consisted of MEM medium, 10 % fetal bovine serum and 2 mM glutamine was distributed in each well of 96 well-microtiter plate. HeLa S3 was cultured at 37°C in a CO2 incubator for one night, each 0.05 ml of test compounds which had been appropriately diluted with the culture solution was added thereto and the mixture was cultured at 37°C for 72 hours in a CO2 incubator. Supernatant was removed, each 0.1 ml of the culture solution containing 0.02 % neutral red was added to the residue, the mixture was incubated at 37°C for one hour in a CO2 incubator and the cells were stained. Supernatant was removed and the residue was washed once with physiological saline. Then, the pigment was extracted with 0.001 N hydrochloric acid/30 % ethanol and the absorbance at 550 nm was measured by a microplatereader. A concentration of the test compound (IC50) at which the growth of cell is inhibited by 50 % was calculated by comparing the absorbance of non-treated cells and that of cells treated with a predetermined concentration of the test compound.
In the case of `COc1cc(C(=O)/C=C/c2c[nH]c3ccccc23)cc(OC)c1OC` [Compound 1, (E)-3-(Indol-3-yl)-1-(3,4,5-trimethoxyphenyl)-2-propen-1-one], the IC50 came out at 0.01 µM.
For `COc1cc(C(=O)/C=C/c2cn(C)c3ccccc23)cc(OC)c1OC` [Compound 2, (E)-3-(1-Methylindol-3-yl)-1-(3,4,5-trimethoxyphenyl)-2-propen-1-one], the IC50 is 0.02 µM.
Regarding `CCn1cc(/C=C/C(=O)c2cc(OC)c(OC)c(OC)c2)c2ccccc21` [Compound 3, (E)-3-(1-Ethylindol-3-yl)-1-(3,4,5-trimethoxyphenyl)-2-propen-1-one], the IC50 was 0.058 µM.
The result for `COc1cc(C(=O)/C=C/c2cn(C(C)=O)c3ccccc23)cc(OC)c1OC` [Compound 6, (E)-3-(1-Acetylindol-3-yl)-1-(3,4,5-trimethoxyphenyl)-2-propen-1-one] reads 0.017 µM.
The result for `COc1cc(C(=O)/C=C/c2cn(C(=O)c3ccccc3)c3ccccc23)cc(OC)c1OC` [Compound 8, (E)-3-(1-Benzoylindol-3-yl)-1-(3,4,5-trimethoxyphenyl)-2-propen-1-one] reads 0.026 µM; that for `COc1cc(C(=O)/C=C/c2c(C)[nH]c3ccccc23)cc(OC)c1OC` [Compound 12, (E)-3-(2-Methylindol-3-yl)-1-(3,4,5-trimethoxyphenyl)-2-propen-1-one], 0.26 µM; that for `COc1cc(C(=O)/C=C/c2c(Cl)n(C)c3ccccc23)cc(OC)c1OC` [Compound 13, (E)-3-(2-Chloro-1-methylindol-3-yl)-1-(3,4,5-trimethoxyphenyl)-2-propen-1-one], 0.078 µM.
Take `COc1cc(C(=O)/C=C/c2c[nH]c3cccc(C)c23)cc(OC)c1OC` [Compound 15, (E)-3-(4-Methylindol-3-yl)-1-(3,4,5-trimethoxyphenyl)-2-propen-1-one]: the IC50 came to 0.086 µM.
With `COc1cc(C(=O)/C=C/c2c[nH]c3ccc(C)cc23)cc(OC)c1OC` [Compound 20, (E)-3-(5-Methylindol-3-yl)-1-(3,4,5-trimethoxyphenyl)-2-propen-1-one], the IC50 amounted to 0.11 µM.
In the case of `COc1cc(C(=O)/C=C/c2c[nH]c3ccc(F)cc23)cc(OC)c1OC` [Compound 29, (E)-3-(5-Fluoroindol-3-yl)-1-(3,4,5-trimethoxyphenyl)-2-propen-1-one] it was 0.06 µM.
In the case of `COc1cc(C(=O)/C=C/c2c[nH]c3cc(C)ccc23)cc(OC)c1OC` [Compound 32, (E)-3-(6-Methylindol-3-yl)-1-(3,4,5-trimethoxyphenyl)-2-propen-1-one] it was 0.0063 µM; in that of `COc1cc(C(=O)/C=C/c2cn(C)c3cc(NC(C)=O)ccc23)cc(OC)c1OC` [Compound 38, (E)-3-(6-Acetamido-1-methylindol-3-yl)-1-(3,4,5-trimethoxyphenyl)-2-propen-1-one], 0.055 µM; in that of `COc1cc(C(=O)/C=C/c2c[nH]c3c(OC)c(OC)ccc23)cc(OC)c1OC` [Compound 40, (E)-3-(6,7-Dimethoxyindol-3-yl)-1-(3,4,5-trimethoxyphenyl)-2-propen-1-one], 0.012 µM.
The result for `COc1cc(C(=O)/C=C/c2c[nH]c3c(OC)cccc23)cc(OC)c1OC` [Compound 46, (E)-3-(7-Methoxyindol-3-yl)-1-(3,4,5-trimethoxyphenyl)-2-propen-1-one] reads 0.2 µM; that for `COc1cc(C(=O)/C(C)=C/c2c[nH]c3ccccc23)cc(OC)c1OC` [Compound 48, (E)-3-(Indol-3-yl)-2-methyl-1-(3,4,5-trimethoxyphenyl)-2-propen-1-one], 0.00029 µM; that for `CCC/C(=C\c1c[nH]c2ccccc12)C(=O)c1cc(OC)c(OC)c(OC)c1` [Compound 49, (E)-3-(Indol-3-yl)-2-propyl-1-(3,4,5-trimethoxyphenyl)-2-propen-1-one], 0.006 µM.
Take `COc1cc(C(=O)/C=C/c2cn(C(=O)c3ccc(C)cc3)c3ccccc23)cc(OC)c1OC` [Compound 50, (E)-3-[1-(4-Methylbenzoyl)indol-3-yl]-1-(3,4,5-trimethoxyphenyl)-2-propen-1-one]: the IC50 came out at 0.025 µM.
In the case of `COc1ccc(C(=O)n2cc(/C=C/C(=O)c3cc(OC)c(OC)c(OC)c3)c3ccccc32)cc1` [Compound 51, (E)--3-[1-(4-Methoxybenzoyl)indol-3-yl]-1-(3,4,5-trimethoxyphenyl)-2-propen-1-one] it was 0.023 µM.
The result for `COc1cc(C(=O)/C=C/c2cn(C(=O)c3cccc(C)c3)c3ccccc23)cc(OC)c1OC` [Compound 52, (E)-3-[1-(3-Methylbenzoyl)indol-3-yl]-1-(3,4,5-trimethoxyphenyl)-2-propen-1-one] reads 0.058 µM; that for `COc1cccc(C(=O)n2cc(/C=C/C(=O)c3cc(OC)c(OC)c(OC)c3)c3ccccc32)c1` [Compound 53, (E)-3-[1-(3-Methoxybenzoyl)indol-3-yl]-1-(3,4,5-trimethoxyphenyl)-2-propen-1-one], 0.034 µM.
In the case of `COc1cc(C(=O)/C=C/c2cn(C(=O)c3ccc(NC(C)=O)cc3)c3ccccc23)cc(OC)c1OC` [Compound 56, (E)-3-[1-(4-Acetamidobenzoyl)indol-3-yl]-1-(3,4,5-trimethoxyphenyl)-2-propen-1-one] it was 0.023 µM; in that of `COc1cc(C(=O)/C=C/c2cn(C(=O)c3ccc(N(C)C)cc3)c3ccccc23)cc(OC)c1OC` [Compound 57, (E)-3-[1-(4-Dimethylaminobenzoyl)indol-3-yl]-1-(3,4,5-trimethoxyphenyl)-2-propen-1-one], 0.031 µM.
Regarding `COc1ccc(C(=O)n2cc(/C=C/C(=O)c3cc(OC)c(OC)c(OC)c3)c3ccccc32)cc1OC` [Compound 58, (E)-3-[1-(3,4-Dimethoxybenzoyl)indol-3-yl]-1-(3,4,5-trimethoxyphenyl)-2-propen-1-one], the IC50 amounted to 0.064 µM.
The result for `COc1cc(C(=O)/C=C/c2cn(C(=O)c3cc(OC)c(OC)c(OC)c3)c3ccccc23)cc(OC)c1OC` [Compound 59, (E)-3-[1-(3,4,5-Trimethoxybenzoyl)indol-3-yl]-1-(3,4,5-trimethoxyphenyl)-2-propen-1-one] reads 0.028 µM; that for `COc1cc(C(=O)/C=C/c2cn(C(=O)c3cccnc3)c3ccccc23)cc(OC)c1OC` [Compound 60, (E)-3-(1-Nicotinoylindol-3-yl)-1-(3,4,5-trimethoxyphenyl)-2-propen-1-one], 0.0077 µM.
In the case of `COc1cc(C(=O)/C=C/c2cn(C(=O)c3ccncc3)c3ccccc23)cc(OC)c1OC` [Compound 61, (E)-3-(1-Isonicotinoylindol-3-yl)-1-(3,4,5-trimethoxyphenyl)-2-propen-1-one] it was 0.0097 µM; in that of `CC/C(=C\c1c[nH]c2ccccc12)C(=O)c1cc(OC)c(OC)c(OC)c1` [Compound 62, (E)-2-Ethyl-3-(indol-3-yl)-1-(3,4,5-trimethoxyphenyl)-2-propen-1-one], 0.0047 µM.
The result for `COc1cc(C(=O)/C(C)=C/c2c[nH]c3cc(C)ccc23)cc(OC)c1OC` [Compound 63, (E)-2-Methyl-3-(6-methylindol-3-yl)-1-(3,4,5-trimethoxyphenyl)-2-propen-1-one] reads 0.00073 µM; that for `COc1cc(C(=O)C(=Cc2c[nH]c3ccccc23)c2ccccc2)cc(OC)c1OC` [Compound 64, 3-(Indol-3-yl)-2-phenyl-1-(3,4,5-trimethoxyphenyl)-2-propen-1-one], 0.0023 µM.
Regarding `CCCC/C(=C\c1c[nH]c2ccccc12)C(=O)c1cc(OC)c(OC)c(OC)c1` [Compound 65, (E)-2-Butyl-3-(indol-3-yl)-1-(3,4,5-trimethoxyphenyl)-2-propen-1-one], the IC50 turned out to be 0.0063 µM.
The result for `CCc1ccc2c(/C=C(\C)C(=O)c3cc(OC)c(OC)c(OC)c3)c[nH]c2c1` [Compound 66, (E)-3-(6-Ethylindol-3-yl)-2-methyl-1-(3,4,5-trimethoxyphenyl)-2-propen-1-one] reads 0.0025 µM.
Turning to `COc1cc(C(=O)/C=C/c2cn(C(=O)COCC(=O)O)c3ccccc23)cc(OC)c1OC` [Compound 67, (E)-3-(1-Diglycolylindol-3-yl)-1-(3,4,5-trimethoxyphenyl)-2-propen-1-one], the IC50 is 0.011 µM.

Values taken from patent EP0680950B1, “PROPENONE DERIVATIVES” (KYOWA HAKKO KOGYO CO., LTD., priority 1993, dated 1995).
